From US20040043985A1, “6,6-Fused heteroaryl derivatives as matrix metalloproteinase inhibitors” (priority 2002, published 2004)

Biological target: T1, hMMP-13CD (Homo sapiens, UniProt P45452)
T1 construct: a human MMP-13 catalytic domain (“hMMP-13CD”)
Experiment: Inhibition of MMP-13 catalytic domain (thiopeptolide substrate assay)
Type: biochemical
Source text: The assays measure the amount by which a test compound reduces the hydrolysis of a thiopeptolide substrate catalyzed by a matrix metalloproteinase enzyme. Such assays are described in detail by Ye et al., in Biochemistry, 1992;31(45):11231-11235, which is incorporated herein by reference. One such assay is described below in Biological Method 1.
Thiopeptolide substrates show virtually no decomposition or hydrolysis at or below neutral pH in the absence of a matrix metalloproteinase enzyme. A typical thiopeptolide substrate commonly utilized for assays is Ac-Pro-Leu-Gly-thioester-Leu-Leu-Gly-OEt. A 100 μL assay mixture will contain 50 mM of N-2-hydroxyethylpiperazine-N′-2-ethanesulfonic acid buffer (“HEPES,” pH 7.0), 10 mM CaCl2, 100 μM thiopeptolide substrate, and 1 mM 5,5′-dithio-bis-(2-nitro-benzoic acid) (DTNB). The thiopeptolide substrate concentration may be varied, for example from 10 to 800 μM to obtain Km and Kcat values. The change in absorbance at 405 nm is monitored on a Thermo Max microplate reader (molecular Devices, Menlo Park, Calif.) at room temperature (22° C.). The calculation of the amount of hydrolysis of the thiopeptolide substrate is based on E412=13600 M^−1 cm^−1 for the DTNB-derived product 3-carboxy-4-nitrothiophenoxide. […]

IC50: > 50 µM
Compound: O=C(O)c1ccc(Cn2ccc3ccc(C#CCn4ccnn4)cc3c2=O)cc1 [4-[1-oxo-7-(3-[1,2,3]triazol-1-ylprop-1-ynyl)-1H-isoquinolin-2-ylmethyl]benzoic acid]
